From patent US9198942B1, “Method of preparing bioactive compound from solid-state cultivated Antrodia cinnamomea mycelium for anti-metastasis against lung cancer cells” (TAIWAN LEADER BIOTECH CORP., priority 2014, dated 2015) come the findings set out here.

What all share (format): cell-based, human
Data set [1] deals with A549 lung cancer cells. Briefly: MTT survival rate of A549 cells. As to conditions: A549, 0~40 μM, 24 hr. How it is done: (§1) The present invention selects a human lung cancer cell, A549, for exploring lung cancer cell metastasis. For culturing A549, the A549 cells grown in 75 T flask are replanted in a 10 square-centimeter (cm^2) dish at a seeding density of 2×10^5 cells per square-centimeter (cells/cm^2) to be cultured at 37 Celsius degrees (° C.) in an incubator having 5% carbon dioxide (CO2). The culture medium used is Ham's F12 (which is recommended by Bioresources Collection and Research Center (BCRC), Taiwan, and American Type Culture Center (ATCC)) and is added with extra 10% fetal bovine serum. State-of-Use 2: Preparing Extracts of Solid-State Cultivated Antrodia cinnamomea Mycelium
At first, A549 cells are cultured as described in state-of-use 1. After being washed with tripsin, the cells are replanted for 24 hr in a dish having 24 wells at a seeding density of 2×10^5 cells/cm^2. In Table 1, Leader 1 having a concentration of 0, 5, 10, or 40 μM is cultured for 24 hr to be applied to A549, where Leader 1 having 0 μM is added with DMSO to be used as a control group. […] Then, the cell membrane and the blue-violet crystals are dissolved with DMSO to acquire light-absorbance rates with a wavelength of 570 nm for forming a statistical diagram by using sigma plot 10.0.

Data set [2] has as its system A549 lung cancer cells. The experiment in a line: Wound healing of A549 cells. To be noted: A549, 5-40 μM, observed at 0, 12, 24 or 48 hr; especially 40 μM. How it is done: as §1
At first, lung cancer cells A549 are cultured as described in state-of-use 1. After being washed down with tripsin, the cells are replanted in a 12-well plate at a seeding density of […] for 24 hr for attachment. Then, a wound line is made in each well. After floating part of the cells are removed by being slight-washed with PBS, the cells are added to culture media having concentrations of 0, 5, 10, 20 and 40 μM of Leader 1 for observation at time points of 0, 12, 24 or 48 hr to be photographed as records, where a medium dosed with 0 μM of DMSO is used as a control group.

The test system of data set [3] is A549 lung cancer cells. Briefly: Transwell migration of A549 cells. To be noted: A549, 5-40 μM for 24 hr, with or without TNF-α induction, 12 or 24 hr; especially 40 μM. The procedure:
24-well transwell kits (Millipore Co.) are used for analyzing lung cancer cell migration.
At first, lung cancer cells A549 are cultured as described in state-of-use 1. After being washed down with tripsin, the cells are replanted in a 12-well plate at a seeding density of 2×10^5 cells/cm^2 for 24 hr for attachment. After being added into media having concentrations of 0, 5, 10 and 40 μM of Leader 1 for 24 hr, the cells are rinsed with PBS and, then, dropped down with tripsin. The cells are loaded into centrifuge tubes for centrifugal rotation at a speed of 1280 rpm for 3 min to remove supernatant. Residual serum is removed by slow-washing with PBS. Then, centrifugal rotations are processed at a speed of 1280 rpm for 3 min. The cells are added into culture media at a density of 2×10^5 cells/cm^2, where the media are located at an upper layer of the kit and injected with a 200 μl solution containing only 0.1% fetal bovine serum. Another media are located at a lower layer of the kit and containing 20% fetal bovine serum (induced or not induced with TNF-α). The kit having the two layers of media is put in an incubator to be observed after 12 or 24 hr.
(§2) The kit is soaked in methanol and stayed still for 20 min to be dried afterwards. Then, the kit is soaked in Gimsa to be dyed for 20 min. […]

Data set [4] has as its system A549 lung cancer cells. Briefly: Matrigel transwell invasion of A549 cells. To be noted: A549, 5-40 μM for 24 hr, 12 or 24 hr, especially 40 μM. The procedure:
The 24-well kit is used for analyzing lung cancer cell invasion. The kit is prepared by injecting Matrigel (3 mg/ml-well, BD science) into the upper layer of the kit, to be placed in an incubator for 24 hr and, then, process solidification.
At first, lung cancer cells A549 are cultured as described in state-of-use 1. After being washed down with tripsin, the cells are replanted in a 6-well plate at a seeding density of 2×10^5 cells/cm^2 for 24 hr for attachment. After being added into media having concentrations of 0, 5, 10 and 40 μM of Leader 1 for 24 hr, the cells are rinsed with PBS and, then, dropped down with tripsin. The cells are loaded into centrifuge tubes for centrifugal rotation at a speed of 1280 rpm for 3 min to remove supernatant. Residual serum is slowly removed by washing with PBS. Then, centrifugal rotations are processed at a speed of 1280 rpm for 3 min. The cells are added at a density of 2×10^5 cells/cm^2 into culture media, where the media are located at the upper layer and injected with a 200 μl solution containing only 0.1% fetal bovine serum. Another media are located at the lower layer and contain 20% fetal bovine serum. The kit is put in an incubator to be observed after 12 or 24 hr.
as §2

Data set [5] relates to matrix metalloproteinase (MMP-2, MMP-9). The experiment in a line: Gelatin zymography of gelatinase activity in A549 cells. As to conditions: A549, 5-40 μM for 24 hr; especially 40 μM. The procedure:
Electrophoresis is used to detect hydrolytic enzymes. Gelatin zymography is used to analyze activities of gelatinases (MMP-2, MMP-9) in matrix metalloproteinase (MMP) of lung cancer cells.
(§3) At first, lung cancer cells A549 are cultured as described in state-of-use 1. After being washed down with tripsin, the cells are replanted in a 12-well plate at a seeding density of 2×10^5 cells/cm^2 for 24 hr for attachment. Then, the kit is rinsed with PBS two times. After being added into media having concentrations of 0, 5, 10 and 40 μM of Leader 1 for 24 hr, the cells are added into media having 1% fetal bovine serum for 24 hr for obtaining culture media containing the cells. The kit is put into an Eppendorf centrifuge tube for centrifugal rotation at a 1250 rpm speed for 10 min. Then, the supernatant is taken out to be stored at −20° C.
An equivalent amount of the supernatant is added into 8%-gradient colloidal wells of gel (SDS-PAGE, containing 1 mg/ml gelatin) with a 6-times MMP dye. A running buffer is added and reaction stops after 45 kD of a MMP marker is resolved into the gel with a current of 80 V and 300 mA.
(§4) The gel is taken out for reaction in a zymography renaturing buffer at a 35 rpm speed. The reaction is done for 2 times at a room temperature and it takes 30 min for each time. […]

Data set [6] relates to urokinase-type plasminogen activator (uPA). Briefly: Casein-plasminogen zymography of uPA activity in A549 cells. As to conditions: A549, 5-40 μM for 24 hr; especially 40 μM. How it is done: Electrophoresis is used for detecting hydrolytic enzymes. The part regarding plasminogen in casein-zymography is used for analyzing activity of urokinase-type plasminogen activator (uPA) of lung cancer cells, where uPA would decompose plasminogen into plasmin.
as §3
An equivalent amount of the supernatant is added into 8%-gradient colloidal wells of gel (containing 15 μl/ml plasminogen and 1 mg/ml gelatin) with a 6-times MMP dye. A running buffer is added and reaction stops after 45 kD of a MMP marker is resolved into the gel with a current of 80 V and 300 mA.
as §4

Data set [7] concerns related proteases and proteins that promote metastasis (p-Akt, E-cadherin, MMP-2,9, TIMP-1). Briefly: Western blot of metastasis-related proteases and proteins in lung cancer cells. As to conditions: β-actin as control. The procedure:
After total proteins of the cell are obtained, an equivalent amount of proteins are added to 8-10% gradient electrophoresis gel wells at a current of 80 V and 300 mA for 240 min for separating the total proteins. The total proteins sorted according to their sizes are blotted on a polyvinylidene difluoride (PVDF) membrane at a condition using a 100 V current for 2 hr. Then, the PVDF membrane is reacted with a blocking buffer for 1 hr. Therein, the blocking buffer contains 10% w/v skim milk powder in a TBS-T buffer, and the TBS-T buffer contains a TBS buffer having 0.1% Tween 20.
Thereafter, the PVDF membrane is immersed in an antibody solution of actin (Cell signaling Co.); an antibody solution of p-Akt or protein kinase B (1:1000, Cell signaling Co.); an antibody solution of E-cadherin (1:1000, Cell signaling Co.); an antibody solution of MMP-2,9 in matrix metalloproteinase (1:1000, Santa Cruz Co.); and an antibody solution of TIMP-1 (1:1000, Cell signaling Co.). […]
Then, the PVDF membrane is immersed in an anti-mouse secondary antibody solution having horseradish peroxidase and an anti-rabbit secondary antibody solution for reaction at a room temperature for 1˜2 hr. […] Then, an enhanced chemiluminescene (ECL) regent is used to detect fluorescence intensity, where β-actin protein is used as a control group of expression for statistical mapping with sigma plot 10.0.
(Immunoblotting shows a protein as a band on a membrane.)

On to `COc1cc(C)c(OC)c(OC)c1O` [Leader 1, 2,3,6-trimethoxy-4-methylphenol], for which the “survival rate of lung cancer cells (cytotoxicity)” value in the data set on A549 lung cancer cells [1] is listed as “no cytotoxicity to lung cancer cells”. The “suppressing wound healing of lung cancer cells” value in the data set on A549 lung cancer cells [2] is “shows its ability on suppressing wound healing of lung cancer cells”. Also, the “suppressing migration of lung cancer cells” value in the data set with A549 lung cancer cells [3] is listed as “shows activity on suppressing migration of lung cancer cells”. Further, in the data set with A549 lung cancer cells [4], the “suppressing invasion of lung cancer cells” value is on record as “shows ability on suppressing invasion of lung cancer cells”. For the same compound, the “suppressing matrix metalloproteinase (MMP-2, MMP-9) activity of lung cancer cells” value in data set [5] is given as “shows ability on suppressing matrix metalloproteinase (MMP-2, MMP-9) activity of lung cancer cells”. In data set [6], the “suppressing plasminogen activator of lung cancer cells” value is “shows activity on suppressing plasminogen activator of lung cancer cells”. Also, the “suppressing related proteases and proteins that promote metastasis of lung cancer cells” value in data set [7] is “shows ability on suppressing related proteases and proteins that promote metastasis of lung cancer cells”.
